Four compounds from ChEMBL document CHEMBL3217747, “Discovery and pharmacological characterization of a selective delta opiate receptor antagonist (CP-646,777)” (Medchemcomm, 2011) can be followed below.

The target in data set [1] is T1, Delta-type opioid receptor (Homo sapiens, UniProt P41143). Put plainly: Displacement of [3H]diprenorphine from human delta opioid receptor expressed in CHO cells by liquid scintillation counting analysis. The class given is cell-based.
For the next data set, the target named is Mu-type opioid receptor (Homo sapiens, UniProt P35372). Put plainly: Displacement of [3H]diprenorphine from human mu opioid receptor expressed in CHO cells by liquid scintillation counting analysis. The class given is cell-based. In general terms: In a radioligand displacement assay an active substance lowers the binding of a labelled ligand.
Chain of Mu-type opioid receptor (P35372 whole entry): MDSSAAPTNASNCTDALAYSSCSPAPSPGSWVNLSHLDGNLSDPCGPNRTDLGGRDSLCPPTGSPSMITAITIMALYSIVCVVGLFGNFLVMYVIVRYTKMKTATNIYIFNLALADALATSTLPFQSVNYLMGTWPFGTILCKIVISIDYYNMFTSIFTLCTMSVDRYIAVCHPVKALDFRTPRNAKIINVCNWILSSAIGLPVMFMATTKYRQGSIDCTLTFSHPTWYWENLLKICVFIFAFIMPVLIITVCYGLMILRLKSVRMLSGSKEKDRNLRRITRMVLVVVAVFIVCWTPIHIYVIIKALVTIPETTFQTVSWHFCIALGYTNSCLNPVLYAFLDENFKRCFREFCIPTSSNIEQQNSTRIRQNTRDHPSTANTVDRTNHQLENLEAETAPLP
Data set [2] has as its target Kappa-type opioid receptor (Homo sapiens, UniProt P41145). Put plainly: Displacement of [3H]diprenorphine from human kappa opioid receptor expressed in CHO cells by liquid scintillation counting analysis. The class given is cell-based.
Data set [3] deals with T1, Delta-type opioid receptor. Put plainly: Antagonist activity at delta opioid receptor (unknown origin) assessed as [35S]-GTPgammaS binding by liquid scintillation counting analysis. Format: functional. In general terms: GTPγS is a poorly hydrolysed GTP analogue; its binding reports G protein activation.
Data set [4] can be described thus: In vitro clearance in human liver microsomes. Conditions: read-out: CLH. Format: ADME. For orientation: Liver microsomes are vesicles of endoplasmic reticulum, rich in cytochrome P450 enzymes.
For the next data set, the system named is MDCK. Put plainly: Efflux ratio of apparent permeability across […] in MDCK cells expressing human P-gp. Format: ADME, cell-based, Canis lupus familiaris. Conditions: dog.
For a further data set, the system named is Brain. Put plainly: Ratio of drug uptake from wild type P-gp mouse brain to P-gp deficient mouse brain compound treated subcutaneously. The class given is ADME. The following applies: sc.
Data set [5] in a line: Plasma concentration in mouse at 32 mg/kg, sc after 4 hrs. The class given is ADME, organism-based. Set-up: dose 32 mg/kg, route subcutaneous.
The nature of data set [6]: Fraction unbound in mouse at 32 mg/kg, sc after 4 hrs. On the set-up: dose 32 mg/kg, route subcutaneous. The class given is ADME, organism-based. Conditions: in vivo.
Data set [7] deals with Cerebrospinal fluid. Kind of data set: Drug uptake in rat cerebrospinal fluid at 32 mg/kg, sc. The class given is ADME, organism-based. On the set-up: dose 32 mg/kg, route subcutaneous. The following applies: in vivo, read-out: Drug uptake.
For data set [8], the system named is Cerebrospinal fluid. Kind of data set: Drug uptake in rat cerebrospinal fluid at 10 mg/kg, sc. The class given is ADME, organism-based. Conditions: in vivo, read-out: Drug uptake. On the set-up: dose 10 mg/kg, route subcutaneous.
The species named for the next data set is Mus musculus. Put plainly: Reversal of SNC-80 induced hypothermia in ICR mouse assessed as rectal temperature. Format: functional.
Data set [9] can be described thus: Ratio of ED50 for Reversal of SNC-80 induced hypothermia in ICR mouse over Ki for human delta opioid receptor.
The nature of data set [10]: Ratio of plasma concentration in mouse over Ki for human delta opioid receptor. Format: ADME, cell-free.

Each structure is given as a SMILES string.

Chain of Kappa-type opioid receptor (P41145 whole entry): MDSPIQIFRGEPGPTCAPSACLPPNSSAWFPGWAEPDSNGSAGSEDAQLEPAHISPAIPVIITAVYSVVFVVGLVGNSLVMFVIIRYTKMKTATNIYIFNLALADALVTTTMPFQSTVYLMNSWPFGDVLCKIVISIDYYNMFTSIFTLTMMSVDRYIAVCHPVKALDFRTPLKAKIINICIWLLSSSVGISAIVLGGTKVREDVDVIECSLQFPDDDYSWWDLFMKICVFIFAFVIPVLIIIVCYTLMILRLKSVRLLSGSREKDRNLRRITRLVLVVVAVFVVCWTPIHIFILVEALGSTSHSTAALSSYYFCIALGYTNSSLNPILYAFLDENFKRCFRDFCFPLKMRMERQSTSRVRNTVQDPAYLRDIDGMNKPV
T1 sequence (P41143 whole entry): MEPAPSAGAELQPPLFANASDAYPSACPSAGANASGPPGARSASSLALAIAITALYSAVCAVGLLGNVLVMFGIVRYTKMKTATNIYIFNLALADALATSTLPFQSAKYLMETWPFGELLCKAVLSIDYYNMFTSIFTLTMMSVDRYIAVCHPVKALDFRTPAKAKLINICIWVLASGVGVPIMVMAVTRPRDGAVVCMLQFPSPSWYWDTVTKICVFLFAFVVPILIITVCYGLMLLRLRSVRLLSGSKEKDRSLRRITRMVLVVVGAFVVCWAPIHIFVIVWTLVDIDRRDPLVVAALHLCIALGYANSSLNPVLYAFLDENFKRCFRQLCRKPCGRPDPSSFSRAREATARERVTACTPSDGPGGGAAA

In general, Ki refers to a dissociation constant, usually derived from enzyme kinetics or from competition with a known ligand. Read a low Ki as a stronger hold on the target. As usually defined, the IC50 is the point on the concentration scale where inhibition reaches its midpoint. As to `CCCC(C)CN1CCC(c2cccc(O)c2)(c2ncc(C(=O)N(CC)CC)cn2)CC1` (stereo not drawn), the Ki in data set [1] was 6 nM; at Mu-type opioid receptor, above 890 nM; in data set [2], above 890 nM. Also, in data set [3], the IC50 turned out to be 21 nM. The CLint scaled in data set [4] came to 40 mL/min/kg. For the same compound, the Ratio with MDCK is on record as 13.

As a reminder, the fraction unbound is free concentration divided by total concentration. Broadly, the ED50 is the dose at which the effect has come halfway, by size or by number of responders. Turning to `CCC[C@@H](C)CN1CCC(c2cccc(O)c2)(c2ncc(C(=O)N(CC)CC)cn2)CC1`, the Ki in data set [1] was 2 nM; at Mu-type opioid receptor, 830 nM; in data set [2], 142 nM. For the same compound, the IC50 in data set [3] is 35 nM. Besides, in [4], the CLint scaled stood at 48 mL/min/kg. Also, the Ratio came to 13 in the data set with MDCK, 6.5 with Brain, 15 in data set [9] and 100 in data set [10]. For the same compound, the concentration at 4 h in data set [5] amounted to 7500 nM. Further, in data set [6], the fraction unbound at 4 h amounted to 0.3. Also, the results for the concentration in the data set on Cerebrospinal fluid [7] and in the data set with Cerebrospinal fluid [8] were 300 nM and 103 nM, respectively. The median effective dose (ED50) in the data set listed under Mus musculus turned out to be 3 mg/kg.

As to `CCCC(C)CN1CCC(c2cccc(C(N)=O)c2)(c2ncc(C(=O)N(CC)CC)cn2)CC1` (stereo not drawn), the Ki in data set [1] was 2 nM; at Mu-type opioid receptor, above 890 nM; in data set [2], 65 nM. The IC50 in data set [3] is 35 nM. In addition, the CLint scaled in [4] came to 13 mL/min/kg. Also, the Ratio in the data set on MDCK is listed as 13.

In turn, `CCCC(C)CN1CCC(c2ccc(C(=O)N(C)C)cc2)(c2cccc(O)c2)CC1` (stereo not drawn) registered a Ki on Mu-type opioid receptor above 890 nM. Moreover, the CLint scaled in data set [4] is 80 mL/min/kg.
